Several values for one entry are separate records, joined by “and”; a condition that tells them apart may be missing. Equal entries are not always repeated.
Legend:
[1] = system: prostate cancer cell LNCaP overexpressing AKT; assay: Cytoactive test, cell proliferation (CellTiter-Glo); format: cell-based
Excerpt: This experiment intends to study the inhibitory effect of the compound of formula (I) on the prostate cancer cell LNCaP overexpressing AKT.
The content of ATP directly reflects the number and state of cells, and the number of living cells can be detected by quantitatively measuring ATP. The live cell detection kit contains luciferase and its substrate, with the participation of ATP, luciferase can catalyze the substrate and emit a stable optical signal, the amount of ATP in the cell can be determined by detecting the strength of the signal. Wherein the light signal is proportional to the amount of ATP in the cell, and ATP is positively correlated to the number of living cells, so that the proliferation of the cell can be detected. The detection plate was analyzed by using Envision from PE Company.
LNCaP cells were seeded in a 384-well plate, each well contained 1000 cells.
The cell plate was placed in a carbon dioxide incubator overnight.
The compound was 3-fold diluted with Bravo into 10 compound concentrations, and a double duplicate well experiment was set up.
The compound was transferred to the cell plate at an initial concentration of 10 μM. […]
Promega CellTiter-Glo reagent was added to the cell plate, and incubated at room temperature for 10 minutes to stabilize the luminescence signal, which was read by PerkinElmer Envision multi-label analyzer.

[2] = Hygroscopicity test of the crystal form; format: physicochemical; details: 25° C., 24 hours
Description: Three dry glass weighing bottles (with an outer diameter of 50 mm and a height of 30 mm) with a stopper was placed in a desiccator with saturated ammonium chloride solution at the lower part, the glass weighing bottles were left open, the desiccator was covered with lid, and then the desiccator was placed in a 25° C. incubator and left overnight.
The weighing bottle was weighed precisely after placed overnight, the weight was respectively m1 1, m1 2, m1 3
An appropriate amount of the crystal form of the compound of formula (I) was laid flat in the weighing bottles which was already weighed (with the sample thickness of about 1 mm), and was weighed precisely, the weight was respectively m2 1, m2 2, m2 3.
The weighing bottle was left open and was placed together with the stopper in a desiccator with saturated ammonium chloride solution at the lower part, the weighing bottle was left open, the desiccator was covered with lid, and then the desiccator was placed in a 25° C. incubator for 24 hours.
The weighing bottle was covered with its stopper after placed for 24 hours, and then it was weighed precisely, the weight was respectively m3 1, m3 2, m3 3.
The hygroscopic weight gain was calculated, the calculation formula is as follows: Weight gain percentage=100%×(m3−m2)/(m2−m1)

[3] = Stability test of the crystal form (accelerated conditions, HPLC related substances); format: physicochemical
Description: […] The sample was analyzed after 10 days, 1 month and 2 months.
1.2 Preparation of Diluent and Mobile Phase
Diluent: acetonitrile:water (1:1) was used as diluent
For example: 100 mL of pure water and 100 mL of pure acetonitrile were mixed in a glass bottle, followed by degassing with ultrasound for 10 minutes, then cooled down to room temperature.
Mobile phase A: 0.1% phosphoric acid aqueous solution
For example: 2.0 mL phosphoric acid was added into 2000 mL water, followed by ultrasound treatment for 10 minutes, the solution was mixed well and cooled down to room temperature as mobile phase A.
Mobile phase B: acetonitrile
Acetonitrile was used as mobile phase B.
1.3 Preparation of the Reference Solution (0.25 mg/mL Calculated by the Free Base)
The sample of the 0th day was used as reference sample, 16 mL of diluent was added thereto, followed by ultrasound treatment for 5 minutes, and the solution was mixed well. Then the solution was further subjected to 1-fold dilution and marked as STD-1 and STD-2, respectively.
1.4 Preparation of Sample Solution for Testing Sensitivity
Reference solution STD-1 (the sample of the 0th day) was subjected to 2000-fold dilution, noted as LOQ.
1.5 Preparation of the Sample Solution (0.25 mg/mL Calculated by the Freebase)
The sample was taken out and restored to room temperature and 16 mL diluent was added for dissolution. The solution was further subjected to 1-fold dilution to be used as sample solution to detect the content of related substances.

Cc1cnn2c1-c1cc(C(=O)N[C@H](CN)Cc3cccc(F)c3)sc1CCC2.O=C(O)/C=C\C(=O)O
inhibitory effect on the growth of LNCaP cells [1]: significant inhibitory effect
IC50 ([1]; Homo sapiens, 72 h, 3 days, read-out: IC50 of inhibition on cell proliferation): 67 nM
Hygroscopicity scale [2]: no or almost no hygroscopicity
Weight gain percentage, Average ([2]; average of 3 samples, saturated ammonium chloride): 0.07%
Weight gain percentage ([2]; single samples 1-3, saturated ammonium chloride): 0.05% and 0.12% and 0.04%
Impurity content, RRT 0.95 ([3]; 40° C./75%RH, 1M): 0.05%
Impurity content, RRT 0.98 ([3]; 40° C./75%RH, 1M): 0.10%
Impurity content, RRT 0.99 ([3]; 40° C./75%RH, 1M): 1.36%
Impurity content, RRT 1.02 ([3]; 40° C./75%RH, 1M): 0.22%
Impurity content, RRT 1.04 ([3]; 40° C./75%RH, 1M): 0.05%
Impurity content, RRT 1.06 ([3]; 40° C./75%RH, 1M): 0.05%
Impurity content, RRT 1.21 ([3]; 40° C./75%RH, 1M): 1.50%
Impurity content, RRT 1.26 ([3]; 40° C./75%RH, 1M): 0.07%
TRS (total impurity content) ([3]; 40° C./75%RH, 1M): 3.38%
Impurity content, RRT 0.95 ([3]; 40° C./75%RH, 2M): 0.04%
Impurity content, RRT 0.98 ([3]; 40° C./75%RH, 2M): 0.10%
Impurity content, RRT 0.99 ([3]; 40° C./75%RH, 2M): 1.31%
Impurity content, RRT 1.02 ([3]; 40° C./75%RH, 2M): 0.20%
Impurity content, RRT 1.04 ([3]; 40° C./75%RH, 2M): 0.04%
Impurity content, RRT 1.06 ([3]; 40° C./75%RH, 2M): 0.09%
Impurity content, RRT 1.21 ([3]; 40° C./75%RH, 2M): 1.44%
Impurity content, RRT 1.26 ([3]; 40° C./75%RH, 2M): 0.06%
Impurity content, RRT 1.43 ([3]; 40° C./75%RH, 2M): 0.09%
TRS (total impurity content) ([3]; 40° C./75%RH, 2M): 3.37%
Impurity content, RRT 0.98 ([3]; 40° C./75%RH, 10D): 0.10%
Impurity content, RRT 0.99 ([3]; 40° C./75%RH, 10D): 1.40%
Impurity content, RRT 1.02 ([3]; 40° C./75%RH, 10D): 0.24%
Impurity content, RRT 1.04 ([3]; 40° C./75%RH, 10D): 0.04%
Impurity content, RRT 1.21 ([3]; 40° C./75%RH, 10D): 1.50%
Impurity content, RRT 1.26 ([3]; 40° C./75%RH, 10D): 0.06%
TRS (total impurity content) ([3]; 40° C./75%RH, 10D): 3.35%
Impurity content, RRT 0.95 ([3]; 60° C./75%RH, 1M): 0.05%
Impurity content, RRT 0.98 ([3]; 60° C./75%RH, 1M): 0.10%
Impurity content, RRT 0.99 ([3]; 60° C./75%RH, 1M): 1.27%
Impurity content, RRT 1.02 ([3]; 60° C./75%RH, 1M): 0.19%
Impurity content, RRT 1.04 ([3]; 60° C./75%RH, 1M): 0.08%
Impurity content, RRT 1.06 ([3]; 60° C./75%RH, 1M): 0.34%
Impurity content, RRT 1.21 ([3]; 60° C./75%RH, 1M): 1.44%
Impurity content, RRT 1.26 ([3]; 60° C./75%RH, 1M): 0.10%
TRS (total impurity content) ([3]; 60° C./75%RH, 1M): 3.57%
Impurity content, RRT 0.95 ([3]; 60° C./75%RH, 2M): 0.04%
Impurity content, RRT 0.98 ([3]; 60° C./75%RH, 2M): 0.10%
Impurity content, RRT 0.99 ([3]; 60° C./75%RH, 2M): 1.22%
Impurity content, RRT 1.02 ([3]; 60° C./75%RH, 2M): 0.24%
Impurity content, RRT 1.04 ([3]; 60° C./75%RH, 2M): 0.08%
Impurity content, RRT 1.06 ([3]; 60° C./75%RH, 2M): 0.45%
Impurity content, RRT 1.21 ([3]; 60° C./75%RH, 2M): 1.43%
Impurity content, RRT 1.26 ([3]; 60° C./75%RH, 2M): 0.10%
Impurity content, RRT 1.33 ([3]; 60° C./75%RH, 2M): 0.06%
Impurity content, RRT 1.36 ([3]; 60° C./75%RH, 2M): 0.08%
Impurity content, RRT 1.43 ([3]; 60° C./75%RH, 2M): 0.05%
TRS (total impurity content) ([3]; 60° C./75%RH, 2M): 3.85%
Impurity content, RRT 0.98 ([3]; 60° C./75%RH, 10D): 0.10%

Reference: patent US11261196B2, “Salt serving as AKT inhibitor and crystal thereof” (HARBIN ZHENBAO PHARMACEUTICAL CO., LTD., priority 2017, dated 2022)
